Experimental data taken from US7462459B2, “LAT1 transporters expressed in blood brain barrier cells” (XenoPort, Inc., priority 2004, dated 2008).
Read-outs that look alike come from different tables or passages of the source.

Experiments:
[1] = biological target: T1, LAT1 (Homo sapiens, UniProt Q01650); details: cited from earlier work
Target sequence in this assay (Q01650 whole entry, species assumed): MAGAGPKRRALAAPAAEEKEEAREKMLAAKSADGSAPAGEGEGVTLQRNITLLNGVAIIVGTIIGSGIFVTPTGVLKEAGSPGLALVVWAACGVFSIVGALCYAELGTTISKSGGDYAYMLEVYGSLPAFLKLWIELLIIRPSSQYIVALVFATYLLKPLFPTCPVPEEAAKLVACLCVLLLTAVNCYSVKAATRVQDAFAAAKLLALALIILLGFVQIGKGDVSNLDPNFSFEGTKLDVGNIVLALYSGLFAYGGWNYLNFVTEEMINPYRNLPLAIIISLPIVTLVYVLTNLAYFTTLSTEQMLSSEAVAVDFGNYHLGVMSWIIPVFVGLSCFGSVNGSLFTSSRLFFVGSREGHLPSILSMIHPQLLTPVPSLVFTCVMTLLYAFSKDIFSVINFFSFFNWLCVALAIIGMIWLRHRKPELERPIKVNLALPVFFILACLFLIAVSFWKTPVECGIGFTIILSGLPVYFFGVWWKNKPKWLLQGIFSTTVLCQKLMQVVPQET
Target sequence in this assay (P08195 102-630 partner, species assumed): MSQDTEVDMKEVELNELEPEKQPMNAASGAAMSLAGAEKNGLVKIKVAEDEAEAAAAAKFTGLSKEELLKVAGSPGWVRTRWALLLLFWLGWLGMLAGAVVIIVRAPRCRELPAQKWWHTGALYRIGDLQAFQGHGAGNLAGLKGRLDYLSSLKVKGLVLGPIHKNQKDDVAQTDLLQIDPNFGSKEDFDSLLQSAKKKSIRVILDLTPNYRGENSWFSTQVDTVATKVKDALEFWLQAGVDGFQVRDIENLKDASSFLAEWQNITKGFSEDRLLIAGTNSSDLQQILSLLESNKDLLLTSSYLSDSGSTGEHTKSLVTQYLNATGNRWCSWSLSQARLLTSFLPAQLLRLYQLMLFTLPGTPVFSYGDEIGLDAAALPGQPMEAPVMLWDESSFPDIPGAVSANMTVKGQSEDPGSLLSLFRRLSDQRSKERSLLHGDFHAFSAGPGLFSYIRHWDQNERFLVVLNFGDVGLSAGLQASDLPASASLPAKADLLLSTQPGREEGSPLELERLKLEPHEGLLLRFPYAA

[2] = biological target: T1, LAT1; assay: KB cell direct uptake assay (LC-MS-MS); details: read-out: Km or IC50, Direct Uptake; KB cells; 5 min
[3] = biological target: T1, LAT1; details: Literature; LAT1-expressing oocytes; cited from earlier work
Target sequence in this assay (Q01650 whole entry, species assumed): as the sequence (Q01650 whole entry, species assumed) above
Target sequence in this assay (P08195 102-630 partner, species assumed): as the sequence (P08195 102-630 partner, species assumed) above

[4] = biological target: T2, hLAT1 (Homo sapiens, UniProt P08195+Q01650); assay: LAT1 competition uptake assay in HEK-TREx-LAT1-4F2hc cells with 3H-gabapentin; assay type: cell-based
T2 construct: expressed in transfected cells
T2 sequence (Q01650+P08195 fused): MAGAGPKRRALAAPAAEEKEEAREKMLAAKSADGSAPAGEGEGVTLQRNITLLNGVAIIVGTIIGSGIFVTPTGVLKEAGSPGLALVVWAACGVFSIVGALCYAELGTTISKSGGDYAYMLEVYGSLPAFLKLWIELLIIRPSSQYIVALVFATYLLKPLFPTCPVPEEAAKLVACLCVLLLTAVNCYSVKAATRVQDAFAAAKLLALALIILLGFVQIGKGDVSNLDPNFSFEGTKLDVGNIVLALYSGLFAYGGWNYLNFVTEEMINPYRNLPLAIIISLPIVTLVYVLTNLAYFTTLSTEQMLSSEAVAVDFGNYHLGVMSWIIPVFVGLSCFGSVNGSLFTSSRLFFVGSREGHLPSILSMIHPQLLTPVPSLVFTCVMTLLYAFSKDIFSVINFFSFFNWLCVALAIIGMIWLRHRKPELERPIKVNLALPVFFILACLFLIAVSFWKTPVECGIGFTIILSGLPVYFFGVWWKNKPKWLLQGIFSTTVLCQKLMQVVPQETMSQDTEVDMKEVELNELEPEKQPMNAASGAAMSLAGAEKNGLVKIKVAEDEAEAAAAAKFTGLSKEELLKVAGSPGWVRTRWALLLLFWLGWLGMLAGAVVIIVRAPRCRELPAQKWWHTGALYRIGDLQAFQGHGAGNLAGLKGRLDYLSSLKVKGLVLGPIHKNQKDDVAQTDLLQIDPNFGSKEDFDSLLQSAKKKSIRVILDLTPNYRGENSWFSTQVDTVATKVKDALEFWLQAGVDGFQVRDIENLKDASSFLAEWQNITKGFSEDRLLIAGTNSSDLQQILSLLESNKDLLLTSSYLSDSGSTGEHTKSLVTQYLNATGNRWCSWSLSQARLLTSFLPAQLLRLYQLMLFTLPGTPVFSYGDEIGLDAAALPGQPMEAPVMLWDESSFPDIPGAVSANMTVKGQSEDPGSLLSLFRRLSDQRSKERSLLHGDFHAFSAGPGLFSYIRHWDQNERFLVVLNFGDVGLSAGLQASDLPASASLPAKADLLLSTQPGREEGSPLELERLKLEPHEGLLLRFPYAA
Description: The plates were incubated at room temperature for 15 minutes.

[5] = biological target: T3, LAT1 transporter (Homo sapiens, UniProt Q01650); assay: KB cell competition assay with 14C-gabapentin; assay type: cell-based
T3 construct: KB cells endogenously expressing LAT1; endogenous in cells; host or cells: KB cells
T3 sequence (Q01650 whole entry): as the sequence (Q01650 whole entry, species assumed) above
T3 sequence (P08195 102-630 partner): as the sequence (P08195 102-630 partner, species assumed) above
From the text: To increase the throughput of LAT1 compound screening, a mammalian cell assay was developed. Because LAT1 mRNA is expressed at detectable levels in many cancer cell lines, over 20 human cell lines were screened for LAT1 expression using quantitative PCR. Cell lines included A498, A549, ASPC, CALU, CAPAN, DLD, DU145, H69AR, HCT8, HEK, HELA, HEPG2, HL60, JAR, JUR, KB, LOVO, MCF7, PANC1, PC3, and SW48.
To determine whether a compound interacts with the LAT1 transporter, a competition-binding assay was developed. The assay measures how different concentrations of a test compound block the uptake of a radiolabeled substrates such as ^14C-L-dopa or ^14C-gabapentin. The half-maximal inhibitory concentration (IC50) for inhibition of transport of a substrate by a test compound is an indication of the affinity of the test compound for the LAT1 transporter. Competition binding studies were performed as follows. KB cells were plated in 96-well plates at 100,000 cells/well and incubated for 24 hours at 37° C. Radiolabeled ^14C-gabapentin (˜50,000 cpm/well) was added to each well in the presence and absence of various concentrations of test compound in duplicate or triplicate. Plates were incubated at room temperature for 20 min. Excess radiolabeled substrate was removed and cells were washed three times with a 96-well plate washer with cold assay buffer. Scintillation fluid was added to each well, the plates were sealed and counted in a 96-well plate-based scintillation counter. Data were graphed and analyzed using non-linear regression analysis with Prism Software (GraphPad, Inc., San Diego, Calif.).

[6] = biological target: T1, LAT1; assay: Oocyte direct uptake assay (LC-MS-MS), oocytes expressing hLAT1 and 4F2hc; assay type: cell-based; design: expressed in transfected cells; host or cells: Xenopus oocytes injected with cRNA
From the text: To assess transport function of a specific transporter protein, it can be desirable to clone the cDNA and express the protein in cells that have low endogenous transport activity. Human LAT1 was cloned by PCR, fully sequenced, and subcloned into plasmids that can be used for expression in mammalian cells or Xenopus oocytes. The co-subunit required for LAT1 function, 4F2HC (Genbank accession AB018010), was also cloned and sequenced. Unless otherwise noted, 4F2HC was also co-expressed in each heterologous system described in the example. […] For expression in Xenopus oocytes, in vitro LAT1 and 4F2HC cRNA was prepared and injected into defoliculated oocytes.
To measure directly the uptake of possible substrates, an oocyte uptake assay in which compounds are measured by mass spectroscopy was developed. To illustrate this approach, uptake assays of gabapentin and L-dopa were performed. Oocytes used in this experiment were injected with LAT1 cRNA and incubated at 16-18° C. until maximal transporter expression was reached. Oocytes from the same batch, which were not injected with cRNA, were used in the experiment to serve as a control. […] Following the incubation, the pools of oocytes were washed 4 times with 0.5% BSA ND96 buffer and separated into 2 oocyte subpools containing 4 oocytes each. Subpools were homogenized in 150 μl of ice cold 80% MeOH/H2O, and lysed manually with a P200 pipettor. Lysates were vortexed briefly before being spun in a 4° C. tabletop centrifuge at 13.2 krpm for 15 minutes. Approximately 110 μl of lysate was removed from the eppendorf tubes and placed in a 96-well plate. Lysates were analyzed for gabapentin and L-dopa by liquid chromatography-mass spectroscopy.
Samples were analyzed by LC-MS-MS as follows. […] Analyte fragmentation peaks were integrated using Analyst 1.2 quantitation software, and concentrations were calculated using a calibration curve of signals produced by known concentrations of the compound.
Target sequence in this assay (Q01650 whole entry): as the sequence (Q01650 whole entry, species assumed) above
Target sequence in this assay (as listed by the source partner): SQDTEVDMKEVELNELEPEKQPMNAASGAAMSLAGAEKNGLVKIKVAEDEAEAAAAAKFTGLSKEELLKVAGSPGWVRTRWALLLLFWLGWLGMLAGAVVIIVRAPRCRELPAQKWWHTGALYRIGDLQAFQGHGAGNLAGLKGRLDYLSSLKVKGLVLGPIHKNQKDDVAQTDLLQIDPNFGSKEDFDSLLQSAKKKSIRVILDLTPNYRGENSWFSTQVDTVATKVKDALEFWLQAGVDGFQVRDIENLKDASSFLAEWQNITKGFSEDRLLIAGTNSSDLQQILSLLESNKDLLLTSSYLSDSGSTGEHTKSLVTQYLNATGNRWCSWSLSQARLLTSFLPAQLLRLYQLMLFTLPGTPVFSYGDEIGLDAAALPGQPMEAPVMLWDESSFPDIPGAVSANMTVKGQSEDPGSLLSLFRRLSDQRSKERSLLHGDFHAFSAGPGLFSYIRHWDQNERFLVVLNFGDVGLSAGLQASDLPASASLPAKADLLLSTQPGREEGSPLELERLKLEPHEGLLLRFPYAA

[7] = biological target: T2, hLAT1; assay: LAT1 direct uptake assay in HEK-TREx-LAT1-4F2hc cells (LC-MS-MS); assay type: cell-based; details: read-out: Km or IC50, Direct Uptake
Description: Four concentrations (bracketing the affinity as measured by competition assays) per compound were routinely tested.
Typically, four concentrations bracketing the IC50 were tested. The highest test concentration for each compound was made in an eppendorf tube and diluted into HBSS. The samples were robustly vortexed and centrifuged for 10 minutes at 13,200 rpm to spin down any precipitate. […] Three additional 2-fold dilutions were made in the subsequent rows (B-D or […]) in HBSS.
Alternatively, cells were washed manually with equivalent volumes using a multichannel pipettor.
The plate was incubated at room temperature for 10 minutes.
120 μl of the cell extract was removed from each well and transferred to a fresh 96-well v-bottom polypropylene plate. […] 10 μl of the 50 μM propranolol solution was added to each well of a fresh 96-well plate (a plate amenable for sampling in the LC-MS-MS).

[8] = biological target: T1, LAT1; assay: Radiolabel uptake into Xenopus oocytes expressing LAT1 and 4F2HC; assay type: cell-based; design: expressed in transfected cells; host or cells: Xenopus oocytes injected with cRNA; details: FIG. 2
[9] = biological target: PgP (Homo sapiens, UniProt P08183); assay: Cellular transwell monolayer efflux assay, MDCK cells with TREx-PgP
PgP, sequence (P08183 whole entry): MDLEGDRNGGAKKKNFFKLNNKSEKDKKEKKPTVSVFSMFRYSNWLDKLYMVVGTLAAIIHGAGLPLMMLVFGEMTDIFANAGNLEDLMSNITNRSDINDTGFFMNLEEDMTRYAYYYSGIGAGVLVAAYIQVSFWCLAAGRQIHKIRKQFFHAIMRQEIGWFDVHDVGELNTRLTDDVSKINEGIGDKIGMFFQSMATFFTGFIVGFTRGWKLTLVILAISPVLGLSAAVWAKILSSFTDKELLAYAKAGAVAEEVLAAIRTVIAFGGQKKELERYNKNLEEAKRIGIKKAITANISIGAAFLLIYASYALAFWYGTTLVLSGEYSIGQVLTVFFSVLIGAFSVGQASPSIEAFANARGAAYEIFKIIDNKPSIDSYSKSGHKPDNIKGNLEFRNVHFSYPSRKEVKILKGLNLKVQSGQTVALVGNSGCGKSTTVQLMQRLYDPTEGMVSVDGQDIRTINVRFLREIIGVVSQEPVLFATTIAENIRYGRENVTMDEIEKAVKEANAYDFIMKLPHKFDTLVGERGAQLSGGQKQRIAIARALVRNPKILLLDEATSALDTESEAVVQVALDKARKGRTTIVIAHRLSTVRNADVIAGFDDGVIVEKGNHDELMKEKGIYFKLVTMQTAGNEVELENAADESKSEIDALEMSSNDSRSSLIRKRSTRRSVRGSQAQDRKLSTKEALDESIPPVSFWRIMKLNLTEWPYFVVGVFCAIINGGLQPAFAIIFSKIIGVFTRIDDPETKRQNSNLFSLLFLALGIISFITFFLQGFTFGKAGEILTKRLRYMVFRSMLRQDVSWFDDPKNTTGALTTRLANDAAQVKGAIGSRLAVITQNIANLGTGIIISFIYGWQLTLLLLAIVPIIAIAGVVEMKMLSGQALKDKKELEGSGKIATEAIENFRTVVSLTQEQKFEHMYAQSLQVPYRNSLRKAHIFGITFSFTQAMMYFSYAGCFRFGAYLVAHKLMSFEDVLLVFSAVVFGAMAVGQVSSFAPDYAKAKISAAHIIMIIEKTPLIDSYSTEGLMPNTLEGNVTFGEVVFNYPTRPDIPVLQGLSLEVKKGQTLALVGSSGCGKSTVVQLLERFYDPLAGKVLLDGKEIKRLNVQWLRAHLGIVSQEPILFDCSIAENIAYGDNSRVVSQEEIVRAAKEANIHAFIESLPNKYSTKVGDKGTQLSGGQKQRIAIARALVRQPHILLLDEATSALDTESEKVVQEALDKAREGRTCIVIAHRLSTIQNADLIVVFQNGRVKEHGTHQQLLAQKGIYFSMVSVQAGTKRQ

[10] = KB cells, read-out: Km or IC50, Competition (14C-GP)
[11] = own data, read-out: Km or IC50, Direct Uptake
[12] = 2.5 nM 3H-vinblastine, 250 μM verapamil

## NCC(CC(=O)O)c1ccc(Cl)cc1 (stereo not shown) [Baclofen]
[1]
  Reported Affinity for LAT1: 0.25 mM

## NC1(C(=O)O)CC2CCC1C2 (stereo not shown) [Bicyclohexane amino acid]
[1]
  Reported Affinity for LAT1: 0.18 mM

## NCC1(CC(=O)O)CCCCC1 [Gabapentin]
[2]
  Km: 160 µM
[1]
  Reported Affinity for LAT1: 0.15 mM
[3]
  Km or IC50, Radiolabel Uptake or Competition: 340 µM
[4]
  IC50: 400 µM
[5]
  IC50: 210 µM
[6]; read-out: Km or IC50, Direct Uptake, own data
  Km: 140 µM
[7]
  Km: 500 µM

## N[C@@H](Cc1ccc(O)c(O)c1)C(=O)O [L-dopa]
[8]
  3H-L-dopa uptake into oocytes expressing LAT1 and 4F2HC versus noninjected controls: higher levels
[5]; [10]
  IC50: 190 µM
[6]; [11]
  Km: 66 µM

## CC(C)C[C@H](N)C(=O)O [Leucine]
[1]
  Reported Affinity for LAT1: 0.22 mM

## CSCC[C@H](N)C(=O)O [Methionine]
[1]
  Reported Affinity for LAT1: 0.25 mM

## N[C@@H](Cc1ccccc1)C(=O)O [Phenylalanine]
[2]
  Km: 14.5 µM
[1]
  Reported Affinity for LAT1: 0.025 mM
[3]
  Km or IC50, Radiolabel Uptake or Competition: 12.5 to 14.2 µM
[4]; HEK-LAT1 cells, read-out: Km or IC50, Competition (3H-GP)
  IC50: 160 µM
[5]; [10]
  IC50: 100 µM
[6]; [11]
  Km: 25 µM
[7]
  Km: 140 µM

## N[C@@H](Cc1c[nH]c2ccccc12)C(=O)O [Tryptophan]
[1]
  Reported Affinity for LAT1: 0.35 mM

## CC[C@]1(O)C[C@@H]2CN(CCc3c([nH]c4ccccc34)[C@@](C(=O)OC)(c3cc4c(cc3OC)N(C)[C@H]3[C@@](O)(C(=O)OC)[C@H](OC(C)=O)[C@]5(CC)C=CCN6CC[C@]43[C@@H]65)C2)C1 [vinblastine]
[9]
  PgP substrate status: is a substrate of PgP
[9]; [12]
  Apical to basolateral transport in the presence of verapamil: strongly increased
  Basolateral to apical transport in the presence of verapamil: strongly decreased
